Experimental data: ChEMBL document CHEMBL1201862, “PubChem BioAssay data set” (2004)
Active and inactive are the calls of the source.

Tests used:
[1] = biological target: Induced myeloid leukemia cell differentiation protein Mcl-1 (Homo sapiens, UniProt Q07820); format: functional
[2] = biological target: Multidrug resistance protein CDR2 (Candida albicans (strain SC5314 / ATCC MYA-2876) (Yeast), UniProt P78595); assay: CaCDR2 efflux pump inhibitors in yeast, dose response, S. cerevisiae AD1-8u, singleplex, Cherry Pick1 hits (AID 588604); format: functional
Multidrug resistance protein CDR2, sequence (P78595 whole entry): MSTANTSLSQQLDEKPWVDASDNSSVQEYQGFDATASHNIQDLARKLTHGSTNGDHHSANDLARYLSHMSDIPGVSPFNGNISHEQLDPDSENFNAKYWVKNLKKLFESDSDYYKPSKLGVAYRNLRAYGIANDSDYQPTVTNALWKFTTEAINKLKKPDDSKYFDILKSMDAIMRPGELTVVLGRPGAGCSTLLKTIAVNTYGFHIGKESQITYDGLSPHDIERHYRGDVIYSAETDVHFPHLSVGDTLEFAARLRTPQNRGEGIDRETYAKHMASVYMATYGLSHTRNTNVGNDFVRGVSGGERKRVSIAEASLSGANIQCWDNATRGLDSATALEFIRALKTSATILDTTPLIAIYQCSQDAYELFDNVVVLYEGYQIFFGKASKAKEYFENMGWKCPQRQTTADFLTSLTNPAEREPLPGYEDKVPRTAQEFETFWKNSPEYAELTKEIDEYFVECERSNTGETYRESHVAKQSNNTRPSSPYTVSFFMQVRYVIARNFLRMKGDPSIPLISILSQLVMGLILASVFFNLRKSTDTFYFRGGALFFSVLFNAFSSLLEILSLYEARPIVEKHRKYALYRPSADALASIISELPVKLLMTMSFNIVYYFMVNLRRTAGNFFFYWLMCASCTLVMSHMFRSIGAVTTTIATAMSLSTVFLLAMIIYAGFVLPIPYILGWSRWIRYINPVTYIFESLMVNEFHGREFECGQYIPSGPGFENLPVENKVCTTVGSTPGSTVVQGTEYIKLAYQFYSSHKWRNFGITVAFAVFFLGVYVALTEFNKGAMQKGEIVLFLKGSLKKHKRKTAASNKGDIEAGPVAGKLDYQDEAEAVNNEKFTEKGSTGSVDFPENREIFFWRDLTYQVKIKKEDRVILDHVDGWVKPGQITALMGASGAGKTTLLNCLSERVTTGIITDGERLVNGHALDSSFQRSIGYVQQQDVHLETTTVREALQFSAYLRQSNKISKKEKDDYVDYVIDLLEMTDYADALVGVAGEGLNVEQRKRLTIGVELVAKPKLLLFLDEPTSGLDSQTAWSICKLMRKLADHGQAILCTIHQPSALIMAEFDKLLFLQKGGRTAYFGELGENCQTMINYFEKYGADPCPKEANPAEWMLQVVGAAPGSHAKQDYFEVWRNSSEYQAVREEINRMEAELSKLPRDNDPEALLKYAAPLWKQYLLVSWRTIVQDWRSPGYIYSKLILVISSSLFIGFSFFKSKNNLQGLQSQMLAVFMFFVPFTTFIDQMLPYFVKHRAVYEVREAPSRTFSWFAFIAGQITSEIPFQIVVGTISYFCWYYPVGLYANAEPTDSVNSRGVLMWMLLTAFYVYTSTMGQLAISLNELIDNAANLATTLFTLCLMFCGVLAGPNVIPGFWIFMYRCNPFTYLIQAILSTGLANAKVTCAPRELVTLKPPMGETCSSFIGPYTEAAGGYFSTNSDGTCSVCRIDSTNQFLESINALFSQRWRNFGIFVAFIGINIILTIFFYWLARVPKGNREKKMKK

[3] = biological target: C-C chemokine receptor type 6 (Homo sapiens, UniProt P51684); assay: CCR6 receptor antagonists, dose response, cell-based, luminescent beta-arrestin readout (AID 504728); format: functional
C-C chemokine receptor type 6, sequence (P51684 whole entry): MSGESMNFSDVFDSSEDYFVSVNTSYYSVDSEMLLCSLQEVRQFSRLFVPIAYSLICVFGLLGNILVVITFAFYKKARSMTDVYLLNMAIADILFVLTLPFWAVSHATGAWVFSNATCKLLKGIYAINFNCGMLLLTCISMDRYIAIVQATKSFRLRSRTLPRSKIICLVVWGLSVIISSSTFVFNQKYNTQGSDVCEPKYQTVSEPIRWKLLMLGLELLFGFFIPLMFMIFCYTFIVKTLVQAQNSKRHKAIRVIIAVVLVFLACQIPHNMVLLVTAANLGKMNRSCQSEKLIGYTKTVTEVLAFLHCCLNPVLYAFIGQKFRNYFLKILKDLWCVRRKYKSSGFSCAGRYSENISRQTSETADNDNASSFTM

[4] = biological target: T1, Protein RecA (Mycobacterium tuberculosis, UniProt P9WHJ3); assay: Fluorescence Cell-Free Homogeneous Dose Retest to Identify Inhibitors of RecA-Intein Splicing Activity. [Related pubchem assays (depositor defined):AID2097, AID2223, AID489010, AID492950]; format: functional
T1 sequence (P9WHJ3 whole entry): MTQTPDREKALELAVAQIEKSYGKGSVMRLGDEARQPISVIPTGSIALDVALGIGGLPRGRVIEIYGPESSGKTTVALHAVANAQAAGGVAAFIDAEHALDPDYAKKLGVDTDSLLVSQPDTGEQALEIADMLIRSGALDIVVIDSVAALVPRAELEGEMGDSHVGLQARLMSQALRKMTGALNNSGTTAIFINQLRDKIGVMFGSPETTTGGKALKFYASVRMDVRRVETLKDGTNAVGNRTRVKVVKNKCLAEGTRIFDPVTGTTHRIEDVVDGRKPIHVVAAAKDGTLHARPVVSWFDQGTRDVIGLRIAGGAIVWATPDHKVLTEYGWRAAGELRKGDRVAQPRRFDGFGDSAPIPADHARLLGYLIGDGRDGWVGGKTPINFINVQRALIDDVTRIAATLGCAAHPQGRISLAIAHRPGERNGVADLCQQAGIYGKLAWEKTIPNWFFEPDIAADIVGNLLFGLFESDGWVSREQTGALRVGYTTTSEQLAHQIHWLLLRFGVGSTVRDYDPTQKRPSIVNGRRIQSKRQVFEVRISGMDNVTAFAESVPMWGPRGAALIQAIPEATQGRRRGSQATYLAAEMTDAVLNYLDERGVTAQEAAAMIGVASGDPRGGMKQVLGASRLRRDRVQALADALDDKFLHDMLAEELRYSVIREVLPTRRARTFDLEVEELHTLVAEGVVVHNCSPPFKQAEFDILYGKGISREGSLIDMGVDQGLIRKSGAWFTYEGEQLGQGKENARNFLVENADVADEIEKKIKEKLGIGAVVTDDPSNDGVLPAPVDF

[5] = biological target: T2, Streptokinase A (Streptococcus pyogenes serotype M1, UniProt P10520); assay: S. pyogenes streptokinase expression inhibitors, potency, dose response, plasminogen activation absorbance, OD405 (AID 1914); format: functional, Streptococcus pyogenes M1 GAS;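 further: secreted streptokinase activity via plasminogen activation per viability signal from cell pellet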
T2 sequence (P10520 whole entry): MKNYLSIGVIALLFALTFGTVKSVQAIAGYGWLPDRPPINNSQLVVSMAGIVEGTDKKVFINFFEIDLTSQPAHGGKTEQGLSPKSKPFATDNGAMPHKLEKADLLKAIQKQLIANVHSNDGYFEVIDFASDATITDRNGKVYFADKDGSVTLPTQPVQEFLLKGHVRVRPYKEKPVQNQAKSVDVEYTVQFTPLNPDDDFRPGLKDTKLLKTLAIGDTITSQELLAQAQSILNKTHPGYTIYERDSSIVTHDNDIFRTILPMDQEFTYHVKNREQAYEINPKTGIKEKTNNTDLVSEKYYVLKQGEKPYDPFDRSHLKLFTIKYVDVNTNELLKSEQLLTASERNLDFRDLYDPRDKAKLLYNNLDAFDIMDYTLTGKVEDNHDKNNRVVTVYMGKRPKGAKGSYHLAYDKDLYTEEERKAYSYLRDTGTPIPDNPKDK

[6] = biological target: Genome polyprotein (dengue virus type 2, UniProt P29990); assay: Dengue-2 NS5 methyltransferase inhibitors, primary screen, biochemical, confirmation dose response (AID 588689); format: functional
Genome polyprotein, sequence (P29990 2492-3391 limits assumed): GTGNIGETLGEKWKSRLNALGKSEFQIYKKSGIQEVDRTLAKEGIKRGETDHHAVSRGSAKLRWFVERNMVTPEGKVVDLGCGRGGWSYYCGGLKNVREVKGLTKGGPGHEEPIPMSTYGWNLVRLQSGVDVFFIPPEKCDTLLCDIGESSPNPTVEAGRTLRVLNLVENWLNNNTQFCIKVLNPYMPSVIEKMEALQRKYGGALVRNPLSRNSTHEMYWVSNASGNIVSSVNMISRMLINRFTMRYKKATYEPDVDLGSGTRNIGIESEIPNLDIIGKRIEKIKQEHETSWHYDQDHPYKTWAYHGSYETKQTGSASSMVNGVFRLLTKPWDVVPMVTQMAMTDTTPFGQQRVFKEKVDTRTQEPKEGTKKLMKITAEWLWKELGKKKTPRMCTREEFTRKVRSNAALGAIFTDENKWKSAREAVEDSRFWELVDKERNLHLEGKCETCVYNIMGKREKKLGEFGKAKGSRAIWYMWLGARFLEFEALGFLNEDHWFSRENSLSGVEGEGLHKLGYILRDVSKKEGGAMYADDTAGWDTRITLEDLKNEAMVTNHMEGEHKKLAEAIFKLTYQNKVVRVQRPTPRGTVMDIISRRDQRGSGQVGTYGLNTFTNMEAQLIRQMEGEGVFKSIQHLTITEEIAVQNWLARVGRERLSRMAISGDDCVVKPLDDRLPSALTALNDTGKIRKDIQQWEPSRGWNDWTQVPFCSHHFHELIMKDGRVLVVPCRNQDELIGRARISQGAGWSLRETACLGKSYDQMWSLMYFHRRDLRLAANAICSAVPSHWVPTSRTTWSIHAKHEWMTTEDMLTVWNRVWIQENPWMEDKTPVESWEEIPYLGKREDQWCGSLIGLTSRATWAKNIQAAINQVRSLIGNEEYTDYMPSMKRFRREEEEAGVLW

[7] = biological target: T3, Mitochondrial peptide methionine sulfoxide reductase (Bos taurus, UniProt P54149); assay: Absorbance-based biochemical high throughput dose response assay for activators of Methionine sulfoxide reductase A (MsrA).; format: functional
T3 sequence (P54149 whole entry): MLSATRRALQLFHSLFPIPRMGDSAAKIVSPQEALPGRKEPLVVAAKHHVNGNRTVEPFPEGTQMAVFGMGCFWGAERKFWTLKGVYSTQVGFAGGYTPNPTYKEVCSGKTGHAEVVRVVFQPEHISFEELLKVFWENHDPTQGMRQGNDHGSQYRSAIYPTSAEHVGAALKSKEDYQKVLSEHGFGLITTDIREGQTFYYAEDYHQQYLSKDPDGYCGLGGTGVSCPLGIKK

[8] = biological target: Beta-galactosidase (Escherichia coli, UniProt Q8VNN2); assay: beta-galactosidase enzyme inhibitors and activators, dose response, artefact control for CCR6 antagonist project, biochemical, E. coli enzyme, set 3 (AID 504712); format: functional
Beta-galactosidase, sequence (Q8VNN2 whole entry): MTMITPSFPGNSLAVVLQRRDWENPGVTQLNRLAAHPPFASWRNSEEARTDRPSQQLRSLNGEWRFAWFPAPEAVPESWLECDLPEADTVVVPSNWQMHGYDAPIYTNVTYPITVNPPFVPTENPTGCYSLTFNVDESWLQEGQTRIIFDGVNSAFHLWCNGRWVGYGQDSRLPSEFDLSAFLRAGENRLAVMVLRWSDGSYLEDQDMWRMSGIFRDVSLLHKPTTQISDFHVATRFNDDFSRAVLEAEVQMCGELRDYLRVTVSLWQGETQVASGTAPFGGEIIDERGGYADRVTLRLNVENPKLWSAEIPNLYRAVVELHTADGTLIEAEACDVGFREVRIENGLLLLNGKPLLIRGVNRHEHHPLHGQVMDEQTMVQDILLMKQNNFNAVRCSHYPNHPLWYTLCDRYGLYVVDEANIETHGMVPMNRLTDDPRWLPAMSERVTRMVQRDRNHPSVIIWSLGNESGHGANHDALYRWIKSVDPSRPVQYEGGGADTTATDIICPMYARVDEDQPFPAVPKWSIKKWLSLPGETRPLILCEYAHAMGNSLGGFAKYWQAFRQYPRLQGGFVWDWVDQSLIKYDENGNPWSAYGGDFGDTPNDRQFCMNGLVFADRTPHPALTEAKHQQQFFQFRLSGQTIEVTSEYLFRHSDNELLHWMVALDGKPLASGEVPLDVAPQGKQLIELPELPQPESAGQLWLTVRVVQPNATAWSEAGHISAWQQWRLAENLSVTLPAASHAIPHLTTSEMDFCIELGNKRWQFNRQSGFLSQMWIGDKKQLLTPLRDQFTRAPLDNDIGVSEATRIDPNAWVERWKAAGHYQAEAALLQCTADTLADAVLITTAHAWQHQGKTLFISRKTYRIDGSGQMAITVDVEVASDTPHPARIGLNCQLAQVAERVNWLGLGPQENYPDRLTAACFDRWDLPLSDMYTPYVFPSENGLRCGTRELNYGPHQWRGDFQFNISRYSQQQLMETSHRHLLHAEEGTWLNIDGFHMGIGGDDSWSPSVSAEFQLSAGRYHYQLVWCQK

[9] = biological target: T4, Replicative DNA helicase DnaB (Mycobacterium tuberculosis, UniProt P9WMR3); assay: DnaB intein splicing inhibitors, dose response, biochemical, cell-free fluorescence (AID 449749); format: functional
T4 sequence (P9WMR3 whole entry): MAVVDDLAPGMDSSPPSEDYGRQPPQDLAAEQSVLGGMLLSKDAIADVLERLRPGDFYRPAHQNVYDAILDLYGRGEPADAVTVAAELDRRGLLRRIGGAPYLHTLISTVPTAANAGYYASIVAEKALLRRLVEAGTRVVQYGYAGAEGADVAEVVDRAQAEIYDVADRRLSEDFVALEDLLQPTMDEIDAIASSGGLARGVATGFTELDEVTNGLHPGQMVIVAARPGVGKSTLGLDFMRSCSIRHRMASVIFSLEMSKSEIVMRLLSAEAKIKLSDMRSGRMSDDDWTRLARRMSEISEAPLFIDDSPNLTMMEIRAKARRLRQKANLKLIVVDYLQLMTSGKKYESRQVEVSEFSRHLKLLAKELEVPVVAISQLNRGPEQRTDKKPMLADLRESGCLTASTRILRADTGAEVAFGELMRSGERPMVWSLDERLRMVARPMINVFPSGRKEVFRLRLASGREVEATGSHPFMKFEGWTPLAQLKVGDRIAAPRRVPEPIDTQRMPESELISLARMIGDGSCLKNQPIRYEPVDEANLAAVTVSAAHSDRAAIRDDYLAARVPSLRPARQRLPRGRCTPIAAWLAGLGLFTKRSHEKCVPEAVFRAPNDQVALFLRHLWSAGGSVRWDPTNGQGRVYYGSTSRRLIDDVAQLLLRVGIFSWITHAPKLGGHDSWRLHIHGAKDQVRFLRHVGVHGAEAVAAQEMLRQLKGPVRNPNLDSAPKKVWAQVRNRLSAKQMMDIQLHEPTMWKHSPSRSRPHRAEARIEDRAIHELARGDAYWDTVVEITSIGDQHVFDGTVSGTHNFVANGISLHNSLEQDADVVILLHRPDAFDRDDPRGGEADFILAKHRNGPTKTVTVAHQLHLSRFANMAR

[10] = biological target: T5, Heat shock factor protein 1 (Mus musculus, UniProt P38532); assay: inhibition of MG132-induced HSE-luciferase signal, confirmation, cell-based, NIH3T3, luminescence, dose retest (AID 2382); format: functional;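 further: NIH3T3 fibroblasts with HSF1-driven luciferase reporter stressed by proteasome inhibitor MG132; luminescence from HSF1-driven luciferase expression after 8 hours of MG132 stress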
T5 sequence (P38532 whole entry): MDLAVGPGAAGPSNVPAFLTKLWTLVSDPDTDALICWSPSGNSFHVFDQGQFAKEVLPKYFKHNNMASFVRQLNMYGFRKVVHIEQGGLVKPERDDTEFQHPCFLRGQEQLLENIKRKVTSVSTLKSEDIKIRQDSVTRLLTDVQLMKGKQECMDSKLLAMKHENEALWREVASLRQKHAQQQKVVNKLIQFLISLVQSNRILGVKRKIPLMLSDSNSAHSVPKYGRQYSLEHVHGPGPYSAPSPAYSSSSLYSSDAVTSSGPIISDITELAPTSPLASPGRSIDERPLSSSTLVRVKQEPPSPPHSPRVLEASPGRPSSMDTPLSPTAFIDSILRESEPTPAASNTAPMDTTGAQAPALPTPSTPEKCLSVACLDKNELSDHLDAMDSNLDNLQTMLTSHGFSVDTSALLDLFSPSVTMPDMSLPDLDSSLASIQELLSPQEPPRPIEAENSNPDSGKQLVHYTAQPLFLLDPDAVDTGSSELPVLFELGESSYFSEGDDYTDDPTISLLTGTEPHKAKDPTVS

Induced myeloid leukemia cell differentiation protein Mcl-1, sequence (Q07820 whole entry): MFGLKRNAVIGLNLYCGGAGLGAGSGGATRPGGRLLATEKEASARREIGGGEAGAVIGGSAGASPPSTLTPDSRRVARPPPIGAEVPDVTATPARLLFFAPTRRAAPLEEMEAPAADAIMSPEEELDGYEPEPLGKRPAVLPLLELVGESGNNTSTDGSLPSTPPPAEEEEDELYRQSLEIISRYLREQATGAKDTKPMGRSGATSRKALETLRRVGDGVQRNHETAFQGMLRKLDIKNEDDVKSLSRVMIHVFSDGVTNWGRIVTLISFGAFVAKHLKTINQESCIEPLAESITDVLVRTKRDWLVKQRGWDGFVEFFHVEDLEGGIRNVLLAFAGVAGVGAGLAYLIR

In the case of O=C1C(Cl)=C(Nc2ccc3cn[nH]c3c2)C(=O)c2ccccc21, the IC50 [1] is reported as 6.25 µM (active), the EC50 [2] is reported as 40.6 µM (active) and the IC50 [3] is reported as > 66.6 µM (inactive). The EC50 [4] was 0.955 µM (active), the EC50 [5] was 6.22 µM (active) and the IC50 [6] was 18.7 µM (active). For the same molecule, the EC50 [7] was > 104 µM (inactive), the IC50 [8] was > 66.6 µM (inactive) and the AC50 [9] was 1.65 µM (active). The EC50 [10] was 5.42 µM (active).
